Results on five compounds are retold here after patent US4859671A, “2-substituted 1,2-benzisothiazol-3(2H)-one 1,1-dioxide useful as an anxiolytic agent” (American Home Products Corporation, priority 1988, dated 1989).

The target of one experiment is T1, 5-HT1A receptor (Rattus norvegicus, UniProt P19327).
T1 sequence (P19327 1-422): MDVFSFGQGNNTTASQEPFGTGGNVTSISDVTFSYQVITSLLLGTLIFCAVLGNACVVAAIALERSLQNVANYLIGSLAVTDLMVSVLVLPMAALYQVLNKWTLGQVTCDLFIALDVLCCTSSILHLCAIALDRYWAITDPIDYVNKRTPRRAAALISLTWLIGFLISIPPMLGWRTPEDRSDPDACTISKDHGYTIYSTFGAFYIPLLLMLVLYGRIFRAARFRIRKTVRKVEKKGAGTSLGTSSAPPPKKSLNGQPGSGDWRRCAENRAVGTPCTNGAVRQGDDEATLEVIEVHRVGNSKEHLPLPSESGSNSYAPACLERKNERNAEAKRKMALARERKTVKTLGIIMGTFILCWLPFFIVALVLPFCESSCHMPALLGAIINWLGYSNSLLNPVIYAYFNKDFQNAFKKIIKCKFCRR
To be noted: for inhibition at 1 µM: pH 7.7, read-out: % Inhibition at 1 μM, 5-HT1A Receptor Binding.

A further experiment has as its system anxiety. To be noted: cited from earlier work; for efficacy in the treatment of anxiety neuroses (in words): clinical, compared with diazepam.
For a further experiment, the system named is 5-HT1A receptors. To be noted: compared with buspirone; cited from earlier work.

The structures appear in SMILES notation.

In the case of `O=C1CC2(CCCC2)CC(=O)N1CCCCN1CCN(c2ncccn2)CC1` [Buspirone], at 5-HT1A receptor, the inhibition at 1 µM was 94%.

Consider `O=C1c2ccccc2S(=O)(=O)N1CCCCN1CCN(c2nccc3ccncc23)CC1` [Example 1, 2-[4-[4-(2,7-Naphthyridin-1-yl)-1-piperazinyl]butyl]-1,2-benzoisothiazol-3(2H)-one 1,1-Dioxide], for which the “affinity for the 5-HT1A receptor site (in words)” value on 5-HT1A receptor (conclusion from Table 1) is recorded as “high affinity”. Further, at 5-HT1A receptor, the inhibition at 1 µM is 100%.

Regarding `CC1(C)CC(=O)N(CCCCN2CCN(c3ncccn3)CC2)C(=O)C1` [Gepirone, 4,4-dimethyl-1-[4-[4-(2-pyrimidinyl)-1-piperazinyl]butyl]-2,6-piperidinedione], in the experiment on anxiety, the “anxiolytic activity in clinical trials (in words)” value is listed as “potent anxiolytic drugs” and the “efficacy in the treatment of anxiety neuroses (in words)” value is “comparable to the benzodiazepine diazepam”.

For `O=C1c2ccccc2S(=O)(=O)N1CCCCN1CCN(c2ncccn2)CC1` [ipsapirone], the “selectivity for 5-HT1A receptors relative to buspirone (in words)” value with 5-HT1A receptors is “higher degree of selectivity for 5-HT1A receptors than buspirone”. Further, the “anxiolytic activity in clinical trials (in words)” value with anxiety was “potent anxiolytic drugs”.

With `Cc1nc2sccn2c(=O)c1CCN1CCC(=C(c2ccc(F)cc2)c2ccc(F)cc2)CC1` [ritanserin], in the experiment on anxiety, the “efficacy in the treatment of anxiety neuroses (in words)” value was “comparable to the benzodiazepine diazepam”.
